PMC12693167, “Design, Synthesis and Anticancer Activity of 6-Substituted-1-(3,4,5-trimethoxyphenyl)-1H-indole Against Tubulin Polymerisation” (Molecules, 2025)

What was measured:
MDA-MB-231 cells = assay: CCK-8 antiproliferative assay, MDA-MB-231; format: cell-based; details: Homo sapiens, cell viability (CCK-8), 48 h
Experimental: (§1) To evaluate the anticancer potential of the synthesized compounds, a panel of six human and murine cancer cell lines representing different tissue origins was selected, including MCF-7 (human breast adenocarcinoma), MDA-MB-231 (human triple-negative breast cancer), A549 (human non-small cell lung cancer), HeLa (human cervical cancer), A375 (human melanoma), and B16-F10 (murine melanoma) (Table 2). […] DMSO was used as the vehicle control, and all experiments were performed in triplicate to ensure reproducibility.
(§2) Human breast cancer cells (MCF-7), human lung cancer cells (A549), human cervical cancer cells (HeLa), human triple-negative breast cancer cells (MDA-MB-231), and human malignant melanoma cells (A375) were cultured in DMEM. Mouse melanoma cells (B16F10) were maintained in RPMI-1640 medium. All media were supplemented with 10% fetal bovine serum and 1% penicillin-streptomycin (Life Technologies, Carlsbad, CA, USA) and maintained at 37 °C in a humidified atmosphere with 5% CO2.
(§3) The cytotoxicity of the test compounds was evaluated against MCF-7, A549, HeLa, MDA-MB-231, A375, and B16F10 using the CCK-8 assay. Cells were seeded into 96-well plates at a density of 5000 cells/well. After removing the medium, 100 μL of medium with 0.1% DMSO containing test compounds at different concentrations was added to each well and incubated at 37 °C for another 48 h. The CCK-8 solution was added and incubated for another 1 h, and then, the absorbance was detected with a microplate reader at a wavelength of 450 nm. The IC50 values were calculated by nonlinear regression analysis using GraphPad Prism 8.0.2. All the experiments were repeated at least three times.

MCF-7 cells [1] = assay: Wound healing assay; format: cell-based, human; details: 0.1, 1, 10 μM, 24 h, vs untreated control
Experimental: The impact of compound 3g on MCF-7 cell migration was assessed using wound healing and transwell migration assays.
MCF-7 cells were seeded and incubated in a 6-well plate overnight. Scratches were made in confluent monolayers with a 200 μL pipette tip. Then, wounds were washed twice with media to remove debris and uprooted cells. Cells were treated with various concentrations (0, 0.1, 1, and 10 μM) of compound 3g. Images were obtained using phase contrast microscopy at 0 and 24 h. The migration distance of cells in the wound area was quantified using ImageJ.
Figure 4 Effect of compound 3g on the migration of MCF-7 breast cancer cells. (A) 3g inhibited the migration of MCF-7 cells at different concentrations in a dose-dependent manner. Representative images of wound healing were captured by an inverted microscope at 0 h and 24 h treatment. Scale bar = 200 μm. (B) Wound closure percentages in the different groups after treatment with 3g for 24 h. (C) Results of the transwell migration assay. Representative images of the stained migrated cells after incubation with 3g at different concentrations for 48 h. Scale bar = 200 μm. Data are presented as the mean ± SD of three independent experiments. Bar values represent the standard deviation SD. ** p < 0.01, and *** p < 0.001 (one-way ANOVA).

HeLa cells = assay: CCK-8 antiproliferative assay, HeLa; format: cell-based; details: Homo sapiens, cell viability (CCK-8), 48 h
Experimental: as §1, §2, §3

[2] = system: microtubule network in MCF-7 cells; assay: Immunofluorescence staining of microtubules; format: cell-based, human; details: 0.1, 1 and 10 μM, 24 h
Experimental: Given the potent in vitro antiproliferative activity of compound 3g, its effects on microtubule organization were further investigated using immunofluorescence staining in MCF-7 cells. […] The network appeared disassembled and fragmented in a dose-dependent manner, indicating significant cytoskeletal destabilization.
MCF-7 cells were seeded on glass coverslips in 24-well plates and then treated with vehicle control 0.1% DMSO, 3g (0.1, 1, 10 μM) for 24 h. The cells were fixed with 4% paraformaldehyde and then permeabilized with PBS containing 0.2% Triton X-100. After blocking for 30 min by adding 100 μL of goat serum albumin at room temperature, cells were incubated with a β-tubulin polyclonal antibody (Proteintech, Wuhan Sanying Biotechnology, Wuhan, China, Cat# 10094-1-AP, 1:500 dilution) at 37 °C for 12 h. Then, the cells were washed three times with PBS and incubated with a secondary antibody (Beyotime, Shanghai, China, Cat# A0516, 1:500 dilution) for 1 h at room temperature. Nuclei were labeled with 4,6-diamidino-2-phenylindole (DAPI). Cells were finally visualized using a fluorescence microscope (Nikon TI2-E+A1R, Nikon Corporation, Tokyo, Japan).
Figure 5 Effects of compound 3g on microtubules. MCF-7 cells were treated with vehicle control 0.1% DMSO, compound 3g (0.1μM, 1μM, and 10 μM for 24 h). […]

A375 cells = assay: CCK-8 antiproliferative assay, A375; format: cell-based; details: Homo sapiens, A-375; cell viability (CCK-8), 48 h
Experimental: as §1, §2, §3

MCF-7 cells [3] = assay: Cell cycle analysis by flow cytometry; format: cell-based, human; details: 10 μM, 48 h
Experimental: Given that microtubule polymerization inhibitors are known to disrupt mitosis and induce cell cycle arrest, we evaluated the effect of compound 3g on cell cycle progression in MCF-7 cells by flow cytometry.
MCF-7 cells were seeded in 6-well plates and cultured overnight. Cells were then treated with compound 3g at concentrations of 0.1, 1, and 10 μM for 48 h. After treatment, cells were collected and fixed in 70% ethanol at 4 °C overnight. The fixed cells were washed and resuspended in staining buffer containing RNase A and propidium iodide (PI), followed by incubation in the dark at 37 °C for 30 min. DNA content was subsequently analyzed by flow cytometry.
Figure 6 Cell cycle arrest induced by compound 3g. (A) Compound 3g induced G2/M arrest in MCF-7 cells. MCF-7 cells were incubated with varying concentrations of compound 3g (0.1, 1, and 10 μM) for 48 h. The percentages of cells in different phases of the cell cycle were analyzed by FlowJo 10.8.1. (B) Histograms display the percentage of cell cycle distribution after treatment with compound 3g. Data are expressed as mean ± standard deviation from three independent experiments. Statistical significance was determined by one-way ANOVA followed by Tukey’s post hoc test.

B16-F10 cells = assay: CCK-8 antiproliferative assay, B16-F10; format: cell-based, murine; details: Mus musculus, cell viability (CCK-8), 48 h
Experimental: as §1, §2, §3

Structure (SMILES): COc1cc(-n2ccc3ccc(-c4ccc(C)c(C#N)c4)cc32)cc(OC)c1OC [3g, 2-methyl-5-(1-(3,4,5-trimethoxyphenyl)-1H-indol-6-yl)benzonitrile]
- IC50 (MDA-MB-231 cells): 1610 ± 4 nM
- wound closure (MCF-7 cells [1]): markedly inhibited
- IC50 (HeLa cells): 6100 ± 310 nM
- microtubule architecture [2]: progressive disruption
- IC50 (A375 cells): 570 ± 10 nM
- cells in the G2/M phase (MCF-7 cells [3]): marked accumulation
- IC50 (B16-F10 cells): 1690 ± 410 nM
